Measured values published in PubChem BioAssay (NCI).
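The compound was tested at five concentrations on cells cultured in 96-well plates, with a 48-hour exposure period. GI50 = concentration required for 50% inhibition of growth. TGI: total growth inhibition.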

Tests used:
Test in all cases: DTP human tumour cell line panel, 48 h
UACC-62 melanoma = tested on: UACC-62 melanoma
MDA-MB-435 = tested on: MDA-MB-435
SNB-75 CNS = tested on: SNB-75 CNS
SF-295 CNS = tested on: SF-295 CNS
786-0 renal = tested on: 786-0 renal
HCC-2998 colon = tested on: HCC-2998 colon
ACHN renal = tested on: ACHN renal
SF-268 CNS = tested on: SF-268 CNS
CAKI-1 renal = tested on: CAKI-1 renal
HCT-15 colon = tested on: HCT-15 colon

Row | Compound | GI50 (UACC-62 melanoma) [µM] | TGI (UACC-62 melanoma) [µM] | GI50 (MDA-MB-435) [µM] | TGI (MDA-MB-435) [µM] | GI50 (SNB-75 CNS) [µM] | TGI (SNB-75 CNS) [µM] | GI50 (SF-295 CNS) [µM] | TGI (SF-295 CNS) [µM] | GI50 (786-0 renal) [µM] | TGI (786-0 renal) [µM] | GI50 (HCC-2998 colon) [µM] | TGI (HCC-2998 colon) [µM] | GI50 (ACHN renal) [µM] | TGI (ACHN renal) [µM] | GI50 (SF-268 CNS) [µM] | TGI (SF-268 CNS) [µM] | GI50 (CAKI-1 renal) [µM] | TGI (CAKI-1 renal) [µM] | GI50 (HCT-15 colon) [µM] | TGI (HCT-15 colon) [µM]
1 | O=c1c(Oc2ccc(F)cc2F)cc2cnc(NC3CCOCC3)nc2n1C1CCS(=O)(=O)CC1 | > 25 | > 25 | > 25 | > 25 | > 25 | > 25 | > 25 | > 25 | > 25 | > 25 | > 25 | > 25 | > 25 | > 25 | > 25 | > 25 | > 25 | > 25 | > 25 | > 25
2 | COc1cc(OC)cc(C2CC(=O)Nc3c2c(C)nn3-c2nc3ccccc3[nH]2)c1 (centres undefined) | 1.94 | 4.01 | 2.76 | 7.88 | 3.47 | 9.65 | 1.58 | 3.85 | 2.84 | 9.89 | 3.7 | 56.5 | 3.94 | 42.4 | 3.57 | > 100 | 3.36 | 11 | 3.73 | > 100
3 | CC(O)c1cccc(NCc2c3ccccc3c(=O)n3c2oc2ccccc23)c1 (centres undefined) | 5.45 | 22.3 | 18.4 | > 100 | 1.75 | 5.76 | 2.43 | 14.5 | 4.18 | 19.2 | 11.3 | 57.2 | 3.51 | 13.5 | > 100 | > 100 | 7.29 | > 100 | 5.56 | 28.8
4 | CCN1CCN(C(=O)[C@]23CC[C@@H](C)[C@H](C)[C@@H]2C2=CC[C@@H]4[C@@]5(C)C/C(=C/c6ccncc6)C(=O)C(C)(C)[C@@H]5CC[C@@]4(C)[C@]2(C)CC3)CC1 | 1.53 | 2.87 | 1.62 | 3.24 | 1.27 | 2.67 | 1.55 | 2.88 | 1.73 | 3.43 | 1.5 | 3.03 | 1.73 | 3.1 | 1.64 | 3.13 | 1.32 | 2.8 | 1.65 | 3.35
5 | Cn1c([N+](=O)[O-])cnc1/C=C1\Oc2ccccc2C1=O | 0.522 | 2.22 | 0.175 | 0.395 | 1.51 | 4.87 | 1.65 | 6.19 | 0.203 | 3.67 | 1.9 | 5.06 | 0.197 | 0.632 | 0.303 | 1.66 | 0.24 | 0.601 | 0.193 | 0.675
6 | C=C1C(=O)O[C@H]2[C@H]1CC/C(CNC(=O)c1cc3cc(OC)ccc3[nH]1)=C\CC[C@@]1(C)O[C@@H]21 | 1.52 | 3.61 | 1.73 | 5.03 | 1.9 | 13.1 | 4.89 | 18.7 | 1.51 | 3.2 | 1.66 | 3.26 | 1.24 | 2.84 | 1.79 | 4.47 | 1.97 | 6.25 | 0.825 | 2.23
7 | O=S(=O)(NC1=NCCN1C(=S)SN1CCn2c1nsc2=S)c1ccc(Br)cc1 | 25.2 | 94.3 | 27.6 | > 100 | 44.5 | > 100 | 46.2 | > 100 | 31 | > 100 | 63.9 | > 100 | 22.2 | 73.6 | 39.4 | > 100 | 12.6 | > 100 | 31.8 | > 100
8 | O=c1c2c(nc3n1CCS3)[nH]c1ccccc12 | 62.4 | > 100 | > 100 | > 100 | 30.5 | > 100 | > 100 | > 100 | > 100 | > 100 | > 100 | > 100 | > 100 | > 100 | > 100 | > 100 | 76.8 | > 100 | > 100 | > 100
9 | O=C1Nc2ccc(C(=O)c3ccco3)cc2/C1=C/c1cc(Cl)c(O)c(Cl)c1 | 2.63 | 7.91 | 4.11 | 24.2 | 6.16 | > 25 | 8.21 | > 25 | 4.29 | 11.6 | 6.07 | 17.7 | 2.14 | 11.1 | 5.94 | > 25 | 1.72 | > 20.9 | 4.16 | > 25
10 | O=c1c2cc(Cl)ccc2oc2ccc(OCCCCCN3CCCCC3)cc12 | 1.01 | 2.06 | 1.02 | 2.37 | 7.44 | 14 | 6.62 | 13.5 | 5.91 | 12.5 | 8.55 | 16.9 | 5.28 | 11.2 | 5.28 | 12.2 | 3.24 | 9.84 | 1.26 | 3.45
11 | CCC1(CC)C(=O)OC(=O)C1(CC)CC | – | > 100 | – | > 100 | – | > 100 | – | > 100 | – | > 100 | – | > 100 | – | > 100 | – | > 100 | – | > 100 | – | > 100
12 | Nc1ccc(N(S(=O)(=O)c2ccccc2)S(=O)(=O)c2ccccc2)c(Cl)c1 | – | > 100 | – | > 100 | – | > 100 | – | > 100 | – | > 100 | – | 64.2 | – | > 100 | – | > 100 | – | > 100 | – | > 100
13 | CCOC(=O)Nc1nc2ccc(Cn3cccc3)cc2[nH]1 | – | > 100 | – | 0.731 | – | 2.11 | – | 20 | – | > 100 | – | > 26.5 | – | > 100 | – | > 100 | – | > 100 | – | > 100
14 | COc1cc(C(=O)/C(C)=C/c2c[nH]c3ccccc23)cc(OC)c1OC | – | 14.1 | 0.00232 | 0.00633 | 0.00334 | 16.1 | 0.00298 | 1.61 | 0.00639 | > 100 | 0.0043 | > 100 | 0.00619 | > 100 | 0.00544 | 10.6 | 0.00421 | > 100 | 0.0034 | > 100
